Data reported in patent publication US20260008862A1, “Bispecific Anti-BCMA x Anti-CD3 Antibodies and Uses Thereof” (Regeneron Pharmaceuticals, Inc., priority 2018, published 2026).

What was measured:
Assay type in all cases: in vivo, mouse
[1] = system: BCMA-expressing MOLP-8 tumors; experiment: MOLP-8 + PBMC subcutaneous xenogenic tumor model, dose response (Example 13)
Description: (§1) To determine the in vivo efficacy of anti-BCMA×anti-CD3 bispecific antibodies (Abs), a xenogenic tumor study was performed. Immunodeficient NOD.Cg-Prkdc^scidIl2rg^tm1Wji/SzJ (NSG) mice were subcutaneously implanted with a mixture of 5×10^6 BCMA-expressing MOLP-8 human multiple myeloma tumor cells and 1×10^6 human peripheral blood mononuclear cells (PBMC) isolated from a normal, healthy donor. […] The mice were administered these Abs twice per week for a total of seven doses, and tumor growth was assessed over 56 days. While the BCMA^+ MOLP-8 tumors grew similarly in the vehicle- and CD3-binding control-treated mice, both BCMA×CD3 Abs that were tested prevented the growth of tumors in a dose-dependent manner in vivo.
(§2) Implantation and measurement of xenogenic tumors: NSG mice were subcutaneously implanted with a mixture of 5×10^6 BCMA-expressing MOLP-8 multiple myeloma cells and 1×10^6 PBMC derived from a normal, healthy donor. […] The mice were administered Abs twice per week for a total of seven doses. Tumor growth was measured by caliper twice per week for the duration of the experiment.
(§3) Calculation of xenogenic tumor growth and inhibition: In order to determine tumor volume by external caliper, the greatest longitudinal diameter (length in mm) and the greatest transverse diameter (width in mm) were determined. Tumor volumes based on caliper measurements were calculated by the formula: Volume (mm^3)=(length×width^2)/2.

[2] = system: BCMA-expressing NCI-H929 tumors; experiment: NCI-H929 + PBMC xenogenic tumor model, immediate treatment, dose response (Example 11)
Description: as §1, with “10×10^6” for “5×10^6”, “NCI-H929” for “MOLP-8”, “0.5×10^6” for “1×10^6”, “60” for “56”, “While” for “While the”, “anti-BCMA×anti-CD3” for “BCMA×CD3”
as §2, with “10×10^6” for “5×10^6”, “NCI-H929” for “MOLP-8”, “0.5×10^6” for “1×10^6”, “with calipers” for “by caliper”
as §3

[3] = system: BCMA-expressing NCI-H929 tumors; experiment: NCI-H929 + PBMC xenogenic tumor model, immediate treatment, 4 mg/kg (Example 10)
Description: To determine the in vivo efficacy of BCMA×CD3 bispecific antibodies (Abs), a xenogenic tumor study was performed. Immunodeficient NOD.Cg-Prkdc^scidIl2rg^tm1Wji/SzJ (NSG) mice were subcutaneously implanted with a mixture of 10×10^6 BCMA-expressing NCI-H929 multiple myeloma cells and 0.5×10^6 human peripheral blood mononuclear cells (PBMC) isolated from a normal donor. […] The mice were administered Abs twice per week for a total of three weeks, and tumor growth was assessed over 40 days. While BCMA^+ tumors grew similarly in the vehicle-, isotype control-, and CD3-binding control-treated mice, both BCMA×CD3 Abs that were tested prevented the growth of tumors in vivo.
Implantation and measurement of syngeneic tumors: NSG mice were subcutaneously implanted with a mixture of 10×10^6 BCMA-expressing NCI-H929 multiple myeloma cells and 0.5×10^6 PBMC derived from a normal donor. […] The mice were administered Abs twice per week for a total of three weeks. Tumor growth was measured with calipers twice per week for the duration of the experiment. Mice were sacrificed 40 days after tumor implantation.
as §3, with “syngeneic” for “xenogenic”

What does the source list for “REGN5458: anti-BCMA×anti-CD3 bispecific antibody: BCMA HCVR of mAb21581 (SEQ 66), CD3 HCVR of mAb7221G (SEQ 90), common LCVR SEQ 82”?
Average Tumor Size (mm3) ± SEM on Day 3 ([1]; 0.04 mg/kg): 9.3 ± 2.4 mm3; Average Tumor Size (mm3) ± SEM on Day 7 ([1]; 0.04 mg/kg): 18.3 ± 5.0 mm3; Average Tumor Size (mm3) ± SEM on Day 10 ([1]; 0.04 mg/kg): 73.9 ± 25.7 mm3; Average Tumor Size (mm3) ± SEM on Day 14 ([1]; 0.04 mg/kg): 255.4 ± 79.7 mm3; Average Tumor Size (mm3) ± SEM on Day 17 ([1]; 0.04 mg/kg): 494.3 ± 144.3 mm3; Average Tumor Size (mm3) ± SEM on Day 21 ([1]; 0.04 mg/kg): 1373.0 ± 366.6 mm3; Average Tumor Size (mm3) ± SEM on Day 23 ([1]; 0.04 mg/kg): 1882.3 ± 551.5 mm3; Average Tumor Size (mm3) ± SEM on Day 28 ([1]; 0.04 mg/kg): 2542.5 ± 613.3 mm3; Average Tumor Size (mm3) ± SEM on Day 31 ([1]; 0.04 mg/kg): 2906.1 ± 532.6 mm3; Average Tumor Size (mm3) ± SEM on Day 35 ([1]; 0.04 mg/kg): 3538.0 ± 0.0 mm3; Average Tumor Size (mm3) ± SEM on Day 3 ([1]; 0.4 mg/kg): 13.5 ± 1.5 mm3; Average Tumor Size (mm3) ± SEM on Day 10 ([1]; 0.4 mg/kg): 0 ± 0 mm3; Average Tumor Size (mm3) ± SEM on Day 14 ([1]; 0.4 mg/kg): 0 ± 0 mm3; Average Tumor Size (mm3) ± SEM on Day 17 ([1]; 0.4 mg/kg): 1.7 ± 1.7 mm3; Average Tumor Size (mm3) ± SEM on Day 21 ([1]; 0.4 mg/kg): 5.3 ± 5.3 mm3; Average Tumor Size (mm3) ± SEM on Day 23 ([1]; 0.4 mg/kg): 9.7 ± 9.7 mm3; Average Tumor Size (mm3) ± SEM on Day 28 ([1]; 0.4 mg/kg): 47.4 ± 47.4 mm3; Average Tumor Size (mm3) ± SEM on Day 31 ([1]; 0.4 mg/kg): 104.7 ± 92.6 mm3; Average Tumor Size (mm3) ± SEM on Day 35 ([1]; 0.4 mg/kg): 375.1 ± 307.5 mm3; Average Tumor Size (mm3) ± SEM on Day 42 ([1]; 0.4 mg/kg): 968.8 ± 689.2 mm3; Average Tumor Size (mm3) ± SEM on Day 56 ([1]; 0.4 mg/kg): 1742.4 ± 635.2 mm3; Average Tumor Size (mm3) ± SEM on Day 3 ([1]; 4 mg/kg): 12.5 ± 1.3 mm3; Average Tumor Size (mm3) ± SEM on Day 7 ([1]; 4 mg/kg): 0 ± 0 mm3; Average Tumor Size (mm3) ± SEM on Day 10 ([1]; 4 mg/kg): 0 ± 0 mm3; Average Tumor Size (mm3) ± SEM on Day 14 ([1]; 4 mg/kg): 0 ± 0 mm3; Average Tumor Size (mm3) ± SEM on Day 17 ([1]; 4 mg/kg): 14.5 ± 7.3 mm3; Average Tumor Size (mm3) ± SEM on Day 21 ([1]; 4 mg/kg): 102.7 ± 66.2 mm3; Average Tumor Size (mm3) ± SEM on Day 23 ([1]; 4 mg/kg): 193.3 ± 117.7 mm3; Average Tumor Size (mm3) ± SEM on Day 28 ([1]; 4 mg/kg): 627.4 ± 318.1 mm3; Average Tumor Size (mm3) ± SEM on Day 31 ([1]; 4 mg/kg): 1018.5 ± 498.3 mm3; Average Tumor Size (mm3) ± SEM on Day 35 ([1]; 4 mg/kg): 1342.9 ± 629.6 mm3; Average Tumor Size (mm3) ± SEM on Day 42 ([1]; 4 mg/kg): 2363.0 ± 890.2 mm3; Average Tumor Size (mm3) ± SEM on Day 49 ([1]; 4 mg/kg, Day 49): 1683.5 ± 1683.5 mm3; Average Tumor Size (mm3) ± SEM on Day 56 ([1]; 4 mg/kg): 3108.1 ± 3108.1 mm3; Average Tumor Size (mm3) ± SEM on Day 7 ([2]; 0.04 mg/kg): 30.8 ± 5.5 mm3; Average Tumor Size (mm3) ± SEM on Day 12 ([2]; 0.04 mg/kg): 71.5 ± 22.4 mm3; Average Tumor Size (mm3) ± SEM on Day 15 ([2]; 0.04 mg/kg): 133.4 ± 50.9 mm3; Average Tumor Size (mm3) ± SEM on Day 19 ([2]; 0.04 mg/kg): 413.7 ± 162.7 mm3; Average Tumor Size (mm3) ± SEM on Day 22 ([2]; 0.04 mg/kg): 669.4 ± 248.5 mm3; Average Tumor Size (mm3) ± SEM on Day 26 ([2]; 0.04 mg/kg): 1167.0 ± 431.7 mm3; Average Tumor Size (mm3) ± SEM on Day 29 ([2]; 0.04 mg/kg): 1781.8 ± 620.7 mm3; Average Tumor Size (mm3) ± SEM on Day 4 ([2]; 0.4 mg/kg): 31.9 ± 2.0 mm3; Average Tumor Size (mm3) ± SEM on Day 7 ([2]; 0.4 mg/kg): 11.3 ± 3.0 mm3; Average Tumor Size (mm3) ± SEM on Day 15 ([2]; 0.4 mg/kg): 0 ± 0 mm3; Average Tumor Size (mm3) ± SEM on Day 19 ([2]; 0.4 mg/kg): 0 ± 0 mm3; Average Tumor Size (mm3) ± SEM on Day 22 ([2]; 0.4 mg/kg): 0 ± 0 mm3; Average Tumor Size (mm3) ± SEM on Day 26 ([2]; 0.4 mg/kg): 0 ± 0 mm3; Average Tumor Size (mm3) ± SEM on Day 29 ([2]; 0.4 mg/kg): 0 ± 0 mm3; Average Tumor Size (mm3) ± SEM on Day 34 ([2]; 0.4 mg/kg): 0 ± 0 mm3; Average Tumor Size (mm3) ± SEM on Day 39 ([2]; 0.4 mg/kg): 0 ± 0 mm3; Average Tumor Size (mm3) ± SEM on Day 42 ([2]; 0.4 mg/kg): 0 ± 0 mm3; Average Tumor Size (mm3) ± SEM on Day 46 ([2]; 0.4 mg/kg): 0 ± 0 mm3; Average Tumor Size (mm3) ± SEM on Day 55 ([2]; 0.4 mg/kg): 0 ± 0 mm3; Average Tumor Size (mm3) ± SEM on Day 60 ([2]; 0.4 mg/kg): 0 ± 0 mm3; Average Tumor Size (mm3) ± SEM on Day 4 ([2]; 4 mg/kg): 18.0 ± 1.2 mm3; Average Tumor Size (mm3) ± SEM on Day 12 ([2]; 4 mg/kg): 0 ± 0 mm3; Average Tumor Size (mm3) ± SEM on Day 15 ([2]; 4 mg/kg): 0 ± 0 mm3; Average Tumor Size (mm3) ± SEM on Day 19 ([2]; 4 mg/kg): 0 ± 0 mm3; Average Tumor Size (mm3) ± SEM on Day 22 ([2]; 4 mg/kg): 0 ± 0 mm3; Average Tumor Size (mm3) ± SEM on Day 26 ([2]; 4 mg/kg): 0 ± 0 mm3; Average Tumor Size (mm3) ± SEM on Day 29 ([2]; 4 mg/kg): 0 ± 0 mm3; Average Tumor Size (mm3) ± SEM on Day 34 ([2]; 4 mg/kg): 0 ± 0 mm3; Average Tumor Size (mm3) ± SEM on Day 39 ([2]; 4 mg/kg): 0 ± 0 mm3; Average Tumor Size (mm3) ± SEM on Day 42 ([2]; 4 mg/kg): 0 ± 0 mm3; Average Tumor Size (mm3) ± SEM on Day 46 ([2]; 4 mg/kg): 0 ± 0 mm3; Average Tumor Size (mm3) ± SEM on Day 55 ([2]; 4 mg/kg): 0 ± 0 mm3; Average Tumor Size (mm3) ± SEM on Day 60 ([2]; 4 mg/kg): 0 ± 0 mm3; Average Tumor Size (mm3) ± SEM on Day 4 ([3]; Day 4): 39.5 ± 9.1 mm3; Average Tumor Size (mm3) ± SEM on Day 7 ([3]; Day 7): 0 ± 0 mm3; Average Tumor Size (mm3) ± SEM on Day 11 ([3]; Day 11): 0 ± 0 mm3; Average Tumor Size (mm3) ± SEM on Day 14 ([3]; Day 14): 0 ± 0 mm3; Average Tumor Size (mm3) ± SEM on Day 18 ([3]; Day 18): 0 ± 0 mm3; Average Tumor Size (mm3) ± SEM on Day 21 ([3]; Day 21): 0 ± 0 mm3; Average Tumor Size (mm3) ± SEM on Day 28 ([3]; Day 28): 0 ± 0 mm3; Average Tumor Size (mm3) ± SEM on Day 40 ([3]; Day 40): 0 ± 0 mm3
